Laboratory results as given in patent US20260345621A1, “GABAA RECEPTOR MODULATORS AND USES THEREOF” (Engrail Therapeutics, Inc., priority 2022, published 2026).
Entries after “also recorded” stand apart in the source; their conditions may differ.

Key:
[1] = tested on: memory (Visual Verbal Learning Task); format: in vivo, human (healthy volunteers); settings: oral QD 12 days; dose and day in value
Procedure: (§1) A clinical study was developed to evaluate safety, tolerability, pharmacokinetics, and pharmacodynamics of Compound 1 at plasma steady-state in 40 healthy human volunteers. […].
(§2) Pharmacodynamic analyses included the NEUROCART® assessments, cognitive assessments Visual Verbal Learning Task (VVLT), and quantitative electroencephalography (qEEG). All PD analyses were based on the PD Analysis Set. For all PD endpoints, the baseline was calculated as average of the Day −1 measurements.
(§3) NEUROCART®, VVLT, and qEEG assessments were listed and summarized (absolute and change from baseline) using descriptive statistics at baseline and at each post-baseline time point. To establish whether significant treatment effects could be detected on the repeatedly measured NEUROCART® parameters, each parameter was analyzed with a mixed model analysis of covariance (ANCOVA) with treatment, time, and treatment by time as fixed factors, participant as a random factor, and the (average) baseline measurement as a covariate.

CNS function (NEUROCART) = format: in vivo, human (healthy volunteers)
Procedure: as §1, §2, §3

[2] = oral QD 12 days, dose and day in value

Structure (SMILES): CC(C)(O)c1cnn2c(-c3ccc(F)c(-c4c(F)cccc4C#N)c3)cnc2n1 [Compound 1, 2′,6-difluoro-5′-(3-(2-hydroxypropan-2-yl)imidazo[1,2-b][1,2,4]triazin-7-yl)-[1,1′-biphenyl]-2-carbonitrile]
- delayed word recognition [1]: Significantly decreased delayed word recognition but not immediate recall or delayed recall at 2.0 mg on Day 12, but not on Day 1
- immediate recall and delayed recall/recognition [1]: Significantly decreased immediate recall and decreased delayed recall/recognition at 5.0 mg on Day 1, but not on Day 12
- reaction time for delayed word recognition [1]: Significantly increased reaction time for delayed word recognition at 1.5 mg on Day 1, but not on Day 12; also recorded: inconsistent effects on reaction time for delayed word recognition up to 1.5 mg
- consistency of effects on SPV, body sway, VAS perception and feeling high (CNS function (NEUROCART); 1.5 mg Cohort): less consistent effects
- VAS mood or VAS calmness (CNS function (NEUROCART); oral QD 12 days, any dose, Day 1 or Day 12): Did not affect VAS mood or VAS calmness at any dose on either Day 1 or Day 12
- VAS external perception and VAS internal perception (Bowdle) (CNS function (NEUROCART); [2]): remained unaffected at 1.0 mg, 2.0 mg, and 5.0 mg but significantly increased at 1.5 mg on Day 1 and Day 12
- VAS feeling high (Bowdle) (CNS function (NEUROCART); [2]): significantly increased at 0.5 mg on Day 1 and Day 12, and at 1.5 mg on Day 12 with no apparent dose-related effect
- body sway (CNS function (NEUROCART); [2]): significantly increased body sway at 5.0 mg on Day 1; also recorded: Significantly increased body sway at the highest dose level of 5.0 mg on Day 1 but not on Day 12; also recorded: significantly increased body sway at 5.0 mg acutely
- left pupil/iris ratio (CNS function (NEUROCART); [2]): Significantly reduced left pupil/iris ratio at 1.0 mg, 1.5 mg, and 5.0 mg on Day 1 but not on Day 12
- saccadic reaction time (CNS function (NEUROCART); [2]): Significantly increased saccadic reaction time only at the highest dose level of 5.0 mg on Day 1, but not on Day 12
- smooth pursuit eye movements (CNS function (NEUROCART); [2]): Significantly decreased smooth pursuit eye movements at 0.5 mg, 1.5 mg, and 5.0 mg on Day 1 but not on Day 12
